Read-outs that look alike come from different tables or passages of the source.
Legend:
Experiment in all cases: Kinase inhibition profile (HTRF / ADP Glo kinase assay)
Type in all cases: biochemical
EPHB4 = EPHB4 (Homo sapiens (Human), UniProt P54760)
Procedure: (§1) HTRF kinase assay: 2×ATP and substrate solution as well as 2× kinase and metal solution were prepared with assay buffer. 25 nL of compound was transferred to 384-well assay plate by Echo 655. After centrifugation, 2.5 μL of 2× kinase/metal ion solution was added to the 384-well assay plate followed by incubation at 25° C. for 10 min. 2.5 μL of 2× substrate and ATP solution was added to the wells followed by incubation at 25° C. for 60 min. 2× XL665 and antibody solution was prepared with assay buffer. 5 μL of kinase detection reagent was added to the wells followed by incubation at 25° C. for 60 min. Fluorescence signals at 620 nm (Cryptate) and 665 nm (XL665) were read with a microtiter plate reader. ADP Glo kinase assay: 2×ATP and substrate solution as well as 2× kinase and metal solution were prepared with assay buffer. 20 nL of compound was transferred to 384-well assay plate by Echo 655. 2 μL of 2× kinase/metal ion solution was added followed by incubation at 25° C. for 10 min in the 384-well assay plate. 2 μL of 2× substrate and ATP solution was added to the wells followed by incubation at 25° C. for 60 min. 4 μL of ADP Glo reagent was added to the wells followed by incubation at 25° C. for 40 min. 8 μL of kinase test reagent was added to the wells followed by incubation at 25° C. for 40 min. The luminescence signals were recorded on a microtiter plate reader. Data analysis: the reaction control (0.5% DMSO) reading was set to 0% inhibition, and the background (10 μM positive control) reading was set to 100% inhibition, then the percent inhibition for each test solution was calculated and the results are shown in Table 2 and FIG. 3.

AXL = AXL (Homo sapiens (Human), UniProt P30530)
Procedure: as §1

CDK5/p35NCK = CDK5/p35NCK (Homo sapiens (Human), UniProt Q00535)
Procedure: as §1

JNK1 = JNK1 (Homo sapiens (Human), UniProt P45983)
Procedure: as §1

HPK1 = HPK1 (Homo sapiens (Human), UniProt Q92918)
Procedure: as §1

p70S6K = p70S6K (Homo sapiens (Human), UniProt P23443)
Procedure: as §1

BRSK2 = BRSK2 (Homo sapiens (Human), UniProt Q8IWQ3)
Procedure: as §1

ALK 4 = ALK 4 (Homo sapiens (Human), UniProt P36896)
Procedure: as §1

SGK = SGK (Homo sapiens (Human), UniProt O00141)
Procedure: as §1

CDK1/CycE1 = CDK1/CycE1 (Homo sapiens (Human), UniProt P06493)
Procedure: as §1

SRC = SRC (Homo sapiens (Human), UniProt P12931)
Procedure: as §1

SYK = SYK (Homo sapiens (Human), UniProt P43405)
Procedure: as §1

JNK2 = JNK2 (Homo sapiens (Human), UniProt P45984)
Procedure: as §1

EGFR = EGFR (Homo sapiens (Human), UniProt P00533)
Procedure: as §1

TIE2 = TIE2 (Homo sapiens (Human), UniProt Q02763)
Procedure: as §1

NEK2 = NEK2 (Homo sapiens (Human), UniProt P51955)
Procedure: as §1

PLK2 = PLK2 (Homo sapiens (Human), UniProt Q9NYY3)
Procedure: as §1

CK1γ2 = CK1γ2 (Homo sapiens (Human), UniProt P78368)
Procedure: as §1

ABL1 = ABL1 (Homo sapiens (Human), UniProt P00519)
Procedure: as §1

AMPKαl/β1/γ1 = AMPKαl/β1/γ1 (Homo sapiens (Human), UniProt Q13131)
Procedure: as §1

CK1γ3 = CK1γ3 (Homo sapiens (Human), UniProt Q9Y6M4)
Procedure: as §1

PDGFRα = PDGFRα (Homo sapiens (Human), UniProt P16234)
Procedure: as §1

[1] = 1 uM Compound C1, read-out: % Inhibition (First measurement)
[2] = 1 uM Compound C1, read-out: % Inhibition (Second measurement)
[3] = 1 uM Compound C1, read-out: Average inhibition (%)

Chain of CDK5/p35NCK (Q00535 whole entry, species assumed): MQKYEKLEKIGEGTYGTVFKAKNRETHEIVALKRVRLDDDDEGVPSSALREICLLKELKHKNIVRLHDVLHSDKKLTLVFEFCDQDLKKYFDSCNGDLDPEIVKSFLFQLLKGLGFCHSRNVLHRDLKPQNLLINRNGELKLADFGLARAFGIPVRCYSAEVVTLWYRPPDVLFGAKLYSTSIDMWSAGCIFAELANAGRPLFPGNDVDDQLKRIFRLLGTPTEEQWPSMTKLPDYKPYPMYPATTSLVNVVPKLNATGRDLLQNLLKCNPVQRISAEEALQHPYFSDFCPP
Chain of CDK5/p35NCK (Q15078 whole entry partner, species assumed): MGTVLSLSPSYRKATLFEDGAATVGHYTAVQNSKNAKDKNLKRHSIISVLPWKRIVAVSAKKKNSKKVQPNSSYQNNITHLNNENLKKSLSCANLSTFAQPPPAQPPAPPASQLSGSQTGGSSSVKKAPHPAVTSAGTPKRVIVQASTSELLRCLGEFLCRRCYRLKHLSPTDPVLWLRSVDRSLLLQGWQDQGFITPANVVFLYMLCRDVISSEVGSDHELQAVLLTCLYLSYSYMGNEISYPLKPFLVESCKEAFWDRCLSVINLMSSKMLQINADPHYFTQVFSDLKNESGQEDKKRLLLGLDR
Chain of TIE2 (Q02763 23-1124, species assumed): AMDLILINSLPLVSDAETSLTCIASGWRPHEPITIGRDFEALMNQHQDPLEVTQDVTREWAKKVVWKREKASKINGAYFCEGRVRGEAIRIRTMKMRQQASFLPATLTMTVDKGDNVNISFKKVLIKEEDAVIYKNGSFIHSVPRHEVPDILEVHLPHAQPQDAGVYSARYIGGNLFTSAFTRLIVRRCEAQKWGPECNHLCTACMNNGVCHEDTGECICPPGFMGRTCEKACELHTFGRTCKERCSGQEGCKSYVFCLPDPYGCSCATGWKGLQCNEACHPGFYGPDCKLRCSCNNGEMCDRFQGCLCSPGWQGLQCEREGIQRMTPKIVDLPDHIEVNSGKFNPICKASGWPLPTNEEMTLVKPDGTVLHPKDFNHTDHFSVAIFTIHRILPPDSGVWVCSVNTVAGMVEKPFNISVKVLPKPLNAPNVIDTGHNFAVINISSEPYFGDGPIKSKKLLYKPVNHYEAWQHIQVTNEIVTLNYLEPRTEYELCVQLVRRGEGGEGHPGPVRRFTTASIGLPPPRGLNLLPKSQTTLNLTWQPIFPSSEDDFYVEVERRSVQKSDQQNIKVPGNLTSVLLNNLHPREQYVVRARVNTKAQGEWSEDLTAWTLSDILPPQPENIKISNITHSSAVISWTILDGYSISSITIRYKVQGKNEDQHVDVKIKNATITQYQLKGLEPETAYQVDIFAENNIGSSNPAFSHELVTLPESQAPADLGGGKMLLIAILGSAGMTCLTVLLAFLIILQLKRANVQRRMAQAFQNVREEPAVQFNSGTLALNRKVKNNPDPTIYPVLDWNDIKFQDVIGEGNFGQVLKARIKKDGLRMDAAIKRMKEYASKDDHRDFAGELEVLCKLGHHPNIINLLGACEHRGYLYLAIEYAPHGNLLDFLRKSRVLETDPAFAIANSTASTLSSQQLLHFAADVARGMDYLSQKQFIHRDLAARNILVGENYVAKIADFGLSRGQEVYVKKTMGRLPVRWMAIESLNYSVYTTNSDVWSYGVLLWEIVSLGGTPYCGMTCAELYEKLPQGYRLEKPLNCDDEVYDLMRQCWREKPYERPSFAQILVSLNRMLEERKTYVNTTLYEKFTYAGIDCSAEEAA
Chain of CK1γ3 (Q9Y6M4 whole entry): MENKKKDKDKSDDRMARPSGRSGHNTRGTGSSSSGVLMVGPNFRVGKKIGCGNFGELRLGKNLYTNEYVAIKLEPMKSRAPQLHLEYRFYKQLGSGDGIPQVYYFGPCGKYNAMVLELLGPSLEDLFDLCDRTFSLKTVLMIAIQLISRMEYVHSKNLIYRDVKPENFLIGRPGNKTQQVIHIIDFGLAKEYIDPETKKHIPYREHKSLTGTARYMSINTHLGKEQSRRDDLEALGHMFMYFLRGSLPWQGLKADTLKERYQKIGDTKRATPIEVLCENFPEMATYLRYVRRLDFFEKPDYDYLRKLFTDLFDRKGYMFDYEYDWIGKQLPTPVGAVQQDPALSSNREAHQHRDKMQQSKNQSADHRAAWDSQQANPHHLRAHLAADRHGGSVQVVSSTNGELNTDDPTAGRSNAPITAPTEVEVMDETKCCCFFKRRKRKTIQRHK
Chain of EGFR (P00533 25-1210, species assumed): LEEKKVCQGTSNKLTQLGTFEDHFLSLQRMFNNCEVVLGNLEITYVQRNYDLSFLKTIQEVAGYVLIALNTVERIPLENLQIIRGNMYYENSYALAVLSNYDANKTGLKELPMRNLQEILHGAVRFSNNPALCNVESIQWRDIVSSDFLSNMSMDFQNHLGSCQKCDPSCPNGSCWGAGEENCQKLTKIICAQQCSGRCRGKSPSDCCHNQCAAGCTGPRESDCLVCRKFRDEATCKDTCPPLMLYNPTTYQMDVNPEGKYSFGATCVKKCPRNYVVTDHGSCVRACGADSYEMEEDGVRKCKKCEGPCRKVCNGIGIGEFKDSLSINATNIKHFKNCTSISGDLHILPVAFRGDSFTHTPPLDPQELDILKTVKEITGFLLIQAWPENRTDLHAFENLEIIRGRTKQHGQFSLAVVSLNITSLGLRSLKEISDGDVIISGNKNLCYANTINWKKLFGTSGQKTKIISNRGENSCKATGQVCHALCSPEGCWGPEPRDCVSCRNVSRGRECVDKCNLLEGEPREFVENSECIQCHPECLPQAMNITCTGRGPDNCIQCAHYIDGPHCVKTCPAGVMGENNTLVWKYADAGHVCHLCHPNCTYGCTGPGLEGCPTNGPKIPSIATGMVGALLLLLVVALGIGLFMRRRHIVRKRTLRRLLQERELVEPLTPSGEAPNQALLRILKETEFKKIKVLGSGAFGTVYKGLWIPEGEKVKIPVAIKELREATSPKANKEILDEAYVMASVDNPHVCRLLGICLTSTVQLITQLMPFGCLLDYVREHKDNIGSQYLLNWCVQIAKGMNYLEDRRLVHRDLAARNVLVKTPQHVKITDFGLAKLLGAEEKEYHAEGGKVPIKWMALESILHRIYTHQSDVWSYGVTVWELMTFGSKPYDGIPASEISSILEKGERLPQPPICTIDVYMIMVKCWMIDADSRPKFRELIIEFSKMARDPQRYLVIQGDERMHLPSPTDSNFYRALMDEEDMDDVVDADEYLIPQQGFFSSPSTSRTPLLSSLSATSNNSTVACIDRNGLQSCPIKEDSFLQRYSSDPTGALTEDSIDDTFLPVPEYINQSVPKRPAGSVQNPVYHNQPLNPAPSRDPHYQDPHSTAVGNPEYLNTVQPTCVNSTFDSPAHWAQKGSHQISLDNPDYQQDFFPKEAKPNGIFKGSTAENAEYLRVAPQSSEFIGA
Chain of BRSK2 (Q8IWQ3 whole entry, species assumed): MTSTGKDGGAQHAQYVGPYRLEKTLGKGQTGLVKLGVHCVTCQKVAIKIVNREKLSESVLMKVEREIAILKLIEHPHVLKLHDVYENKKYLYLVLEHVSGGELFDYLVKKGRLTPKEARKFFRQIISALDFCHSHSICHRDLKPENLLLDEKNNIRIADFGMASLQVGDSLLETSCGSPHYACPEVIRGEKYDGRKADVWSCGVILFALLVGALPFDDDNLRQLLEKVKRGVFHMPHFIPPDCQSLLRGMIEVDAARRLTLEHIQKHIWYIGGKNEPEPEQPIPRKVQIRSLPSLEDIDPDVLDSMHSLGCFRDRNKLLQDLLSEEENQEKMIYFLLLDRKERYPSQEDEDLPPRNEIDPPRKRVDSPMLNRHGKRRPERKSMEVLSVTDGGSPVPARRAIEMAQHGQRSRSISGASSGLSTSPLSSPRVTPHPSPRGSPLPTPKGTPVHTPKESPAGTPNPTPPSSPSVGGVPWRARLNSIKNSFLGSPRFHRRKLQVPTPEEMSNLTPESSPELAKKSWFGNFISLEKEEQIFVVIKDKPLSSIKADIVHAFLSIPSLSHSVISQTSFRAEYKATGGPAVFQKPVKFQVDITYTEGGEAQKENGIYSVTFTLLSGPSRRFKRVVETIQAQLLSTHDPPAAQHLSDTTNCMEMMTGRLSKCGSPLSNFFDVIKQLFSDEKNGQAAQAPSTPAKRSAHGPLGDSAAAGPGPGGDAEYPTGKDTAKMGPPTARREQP
Chain of SGK (O00141 whole entry, species assumed): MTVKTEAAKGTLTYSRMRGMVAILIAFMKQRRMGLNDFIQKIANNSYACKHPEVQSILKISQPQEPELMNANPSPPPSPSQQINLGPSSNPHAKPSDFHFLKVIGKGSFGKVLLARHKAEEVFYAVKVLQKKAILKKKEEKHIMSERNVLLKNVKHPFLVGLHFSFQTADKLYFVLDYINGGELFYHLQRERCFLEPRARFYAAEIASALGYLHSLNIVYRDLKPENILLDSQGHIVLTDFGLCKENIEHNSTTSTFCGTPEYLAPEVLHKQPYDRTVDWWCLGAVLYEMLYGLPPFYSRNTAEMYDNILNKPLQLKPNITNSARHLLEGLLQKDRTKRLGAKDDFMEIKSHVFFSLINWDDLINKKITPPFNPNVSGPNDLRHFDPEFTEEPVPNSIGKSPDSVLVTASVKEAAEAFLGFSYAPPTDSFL
Chain of ALK 4 (P36896 24-505, species assumed): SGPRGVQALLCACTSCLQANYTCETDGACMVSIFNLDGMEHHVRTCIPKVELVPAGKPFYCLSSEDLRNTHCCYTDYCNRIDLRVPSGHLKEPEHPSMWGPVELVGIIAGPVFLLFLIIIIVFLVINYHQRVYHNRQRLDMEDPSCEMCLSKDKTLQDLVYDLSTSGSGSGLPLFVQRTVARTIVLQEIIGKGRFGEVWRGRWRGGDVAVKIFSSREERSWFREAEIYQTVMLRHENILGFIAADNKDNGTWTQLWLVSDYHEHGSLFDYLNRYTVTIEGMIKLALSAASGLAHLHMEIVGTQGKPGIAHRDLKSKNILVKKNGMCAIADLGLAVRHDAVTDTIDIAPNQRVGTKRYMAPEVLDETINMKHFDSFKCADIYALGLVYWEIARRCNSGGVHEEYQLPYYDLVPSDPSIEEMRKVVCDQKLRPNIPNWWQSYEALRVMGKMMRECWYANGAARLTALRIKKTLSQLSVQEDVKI

SMILES: Cc1ccc(C(=O)Nc2ccccn2)cc1C#Cc1cnc2cc(C3=CCCCC3)cnn12 [Compound C1, 3-{2-[7-(cyclohex-1-en-1-yl)imidazo[1,2-b]pyridazin-3-yl]ethynyl}-4-methyl-N-(pyridin-2-yl)benzamide]
- inhibition at 1 µM (EPHB4; [1]): 3.8%
- inhibition at 1 µM (EPHB4; [2]): -8.27%
- inhibition at 1 µM (EPHB4; [3]): -2.24%
- inhibition at 1 µM (AXL; [1]): 15.1%
- inhibition at 1 µM (AXL; [2]): 13.3%
- inhibition at 1 µM (AXL; [3]): 14.2%
- inhibition at 1 µM (CDK5/p35NCK; [1]): 31.2%
- inhibition at 1 µM (CDK5/p35NCK; [2]): 31.2%
- inhibition at 1 µM (CDK5/p35NCK; [3]): 31.2%
- inhibition at 1 µM (JNK1; [1]): 4.56%
- inhibition at 1 µM (JNK1; [2]): 5.69%
- inhibition at 1 µM (JNK1; [3]): 5.13%
- inhibition at 1 µM (HPK1; [1]): 23.9%
- inhibition at 1 µM (HPK1; [2]): 24.7%
- inhibition at 1 µM (HPK1; [3]): 24.3%
- inhibition at 1 µM (p70S6K; [1]): 0.46%
- inhibition at 1 µM (p70S6K; [2]): -0.19%
- inhibition at 1 µM (p70S6K; [3]): 0.14%
- inhibition at 1 µM (BRSK2; [1]): 0.46%
- inhibition at 1 µM (BRSK2; [2]): -0.94%
- inhibition at 1 µM (BRSK2; [3]): -0.24%
- inhibition at 1 µM (ALK 4; [1]): -6.24%
- inhibition at 1 µM (ALK 4; [2]): 14.8%
- inhibition at 1 µM (ALK 4; [3]): 4.25%
- inhibition at 1 µM (SGK; [1]): -8.79%
- inhibition at 1 µM (SGK; [2]): -6.61%
- inhibition at 1 µM (SGK; [3]): -7.7%
- inhibition at 1 µM (CDK1/CycE1; [1]): 11.9%
- inhibition at 1 µM (CDK1/CycE1; [2]): 20.1%
- inhibition at 1 µM (CDK1/CycE1; [3]): 16%
- inhibition at 1 µM (SRC; [1]): -0.76%
- inhibition at 1 µM (SRC; [2]): -1.13%
- inhibition at 1 µM (SRC; [3]): -0.94%
- inhibition at 1 µM (SYK; [1]): 5.21%
- inhibition at 1 µM (SYK; [2]): -2.04%
- inhibition at 1 µM (SYK; [3]): 1.59%
- inhibition at 1 µM (JNK2; [1]): 9.39%
- inhibition at 1 µM (JNK2; [2]): 9.07%
- inhibition at 1 µM (JNK2; [3]): 9.23%
- inhibition at 1 µM (EGFR; [1]): -6.86%
- inhibition at 1 µM (EGFR; [2]): 1.78%
- inhibition at 1 µM (EGFR; [3]): -2.54%
- inhibition at 1 µM (TIE2; [1]): -5.65%
- inhibition at 1 µM (TIE2; [2]): 6.2%
- inhibition at 1 µM (TIE2; [3]): 0.28%
- inhibition at 1 µM (NEK2; [1]): 8.18%
- inhibition at 1 µM (NEK2; [2]): 2.89%
- inhibition at 1 µM (NEK2; [3]): 5.54%
- inhibition at 1 µM (PLK2; [1]): 10.6%
- inhibition at 1 µM (PLK2; [2]): 2.02%
- inhibition at 1 µM (PLK2; [3]): 6.33%
- inhibition at 1 µM (CK1γ2; [1]): -6.26%
- inhibition at 1 µM (CK1γ2; [2]): -6.88%
- inhibition at 1 µM (CK1γ2; [3]): -6.57%
- inhibition at 1 µM (ABL1; [1]): 43.2%
- inhibition at 1 µM (ABL1; [2]): 50.7%
- inhibition at 1 µM (ABL1; [3]): 47%
- inhibition at 1 µM (AMPKαl/β1/γ1; [1]): 2.13%
- inhibition at 1 µM (AMPKαl/β1/γ1; [2]): -1.96%
- inhibition at 1 µM (AMPKαl/β1/γ1; [3]): 0.09%
- inhibition at 1 µM (CK1γ3; [1]): -7.05%
- inhibition at 1 µM (CK1γ3; [2]): 1.91%
- inhibition at 1 µM (CK1γ3; [3]): -2.57%
- inhibition at 1 µM (PDGFRα; [1]): 84.1%
- inhibition at 1 µM (PDGFRα; [2]): 84.8%
- inhibition at 1 µM (PDGFRα; [3]): 84.4%

Source: patent publication US20240300958A1, “COMPOUNDS AND THE USES AND PHARMACEUTICAL COMPOSITIONS THEREOF” (BEIJING YOUZHUJU NETWORK TECHNOLOGY CO. LTD., priority 2023, published 2024)
